Experimental data reported in patent US20130274174A1, “THERAPEUTIC COMBINATION OF DAPTOMYCIN AND PROTEIN SYNTHESIS INHIBITOR ANTIBIOTIC, AND METHODS OF USE” (priority 2011, published 2013).

Legend:
[1] = Solubility of test articles in stock solutions and at final test concentrations; format: physicochemical; conditions: stock solution in DMSO:water (1:1)
Method: (§1) Test articles of stock solutions of daptomycin (Cubist, lot MCB2007) and TR-700 were prepared at 40 times the final target concentration in DMSO:water (1:1). DMSO was added first, the solutions were allowed to stand for 60 minutes and then the water was added. […] The final DMSO concentration was 2.5%. The final drug concentrations in the FIC assay plates were set to bracket the MIC value of each test article for each test organism, unless the strain was totally resistant to the test article.

[2] = system: Streptococcus pyogenes 717; assay: FIC checkerboard broth microdilution; format: cell-based
Method: as §1, with “added. TR-700 formed a precipitate above 1280 μg/ml; therefore, this was the highest concentration used.” for “added.”
(§2) The test organisms were originally received from clinical sources, or from the American Type Culture Collection. Upon receipt in our laboratory, the isolates were streaked onto the appropriate growth medium: Tryptic Soy Agar II (Becton Dickinson, Sparks, Md.) supplemented with 5% defibrinated sheep blood for streptococci, and unsupplemented Tryptic Soy Agar II for all other organisms. Colonies were harvested from these plates and a cell suspension was prepared in Tryptic Soy Broth (Becton Dickinson) containing cryoprotectant. Aliquots were then frozen at −80° C. On the day prior to assay, the frozen seeds of the organisms to be tested in that session were thawed and streaked for isolation onto the appropriate agar medium plates and incubated overnight at 35° C. The test organisms were: • Staphylococcus aureus 2053 (methicillin-resistant) • Enterococcus faecalis 795 (vancomycin-susceptible) • Streptococcus pyogenes 717 • Streptococcus pneumoniae 880 (penicillin-resistant) • Escherichia coli 102 (ATCC 25922)
(§3) Streptococci were tested in Mueller Hinton II Broth (Becton Dickinson; Lot 7024879 and 7143673) supplemented with 2% lysed horse blood (Cleveland Scientific, Bath, Ohio; Lot H10472). All other organisms were tested in Mueller Hinton II Broth. The broth was prepared at 1.05× normal weight/volume to offset the 5% volume of the drugs in the final test plates.
(§4) FIC values were determined using a broth microdilution method previously described. See, Sweeney, M T and Zurenko, G E. 2003. In vitro activities of linezolid combined with other antimicrobial agents against staphylococci, enterococci, pneumococci and selected Gram-negative organisms. Antimicrob. Agents Chemother. 47:1902-1906. Automated liquid handlers (Multidrop 384, Labsystems, Helsinki, Finland; Biomek 2000 and Multimek 96, Beckman Coulter, Fullerton Calif.) were used to conduct serial dilutions and liquid transfers.
(§5) The wells (columns 2-12) of standard 96-well microdilution plates (Falcon 3918) were filled with 150 μL of 50% DMSO using the Multidrop 384. Column 1 wells were filled with 300 μl of the 40× stock solutions. […]

[3] = system: Enterococcus faecalis 795 (VSE); assay: FIC checkerboard broth microdilution; format: cell-based; conditions: agent alone
Method: as §1, with “added. TR-700 formed a precipitate above 1280 μg/ml; therefore, this was the highest concentration used.” for “added.”
as §2, §3, §4, §5

[4] = system: Streptococcus pneumoniae 880; assay: FIC checkerboard broth microdilution; format: cell-based; conditions: agent alone
Method: as §1, with “added. TR-700 formed a precipitate above 1280 μg/ml; therefore, this was the highest concentration used.” for “added.”
as §2, §3, §4, §5

[5] = system: Staphylococcus aureus 2053 (MRSA); assay: FIC checkerboard broth microdilution; format: cell-based; conditions: agent alone
Method: as §1, with “added. TR-700 formed a precipitate above 1280 μg/ml; therefore, this was the highest concentration used.” for “added.”
as §2, §3, §4, §5

Cn1nnc(-c2ccc(-c3ccc(N4C[C@H](CO)OC4=O)cc3F)cn2)n1 [TR-700, Tedizolid]
concentration above which a precipitate formed [1]: above 1280 μg/ml
MIC [2]: 0.125 µg/mL
MIC [3]: 0.5 µg/mL
MIC [4]: 0.25 µg/mL
MIC [5]: 0.5 µg/mL
